Data taken from patent US20260174875A1 (Novo Nordisk A/S, priority 2023, published 2026).
pEC50: −log10 of the molar value. Where two headings read alike, the source gives them in different places. Numbered stars: 1 amine (or outer) side, 2 acyl side, 3 side chain; on linkers, the order of the positions; unused ones are H or OH. Square brackets hold non-standard residues; d marks the D form. Side chains are listed from the residue outwards. * marks the point of attachment. C18 diacid = O=C(O)CCCCCCCCCCCCCCCCC(=O)*; γGlu = O=C(O)[C@H](CCC(=O)[*:2])N[*:1]; AEEA = NCCOCCOCC(=O)O; Aib = CC(C)(N)C(=O)O

Legend:
Type in all cases: cell-based
[1] = biological target: T1, human GLP-1 receptor (hGLP-1R) (Homo sapiens, UniProt P43220); test: GLP-1 receptor assay, method A (CRE-luciferase reporter, BHK cells)
T1 construct: expressed in transfected cells
Method: (§1) To assess how the activation of the receptors is potentially influenced by the presence of human serum albumin (HSA), the in vitro assays were performed in the absence of HSA and presence of 1% (w/v) HSA.
Cells at approximately 80-90% confluence were washed once in PBS (Gibco 14190-094) and loosened from the cell flasks with Versene (Gibco, 15040-033). […] Cells were aliquoted and stored at −180° C. until use.
(§2) The assay buffer consisted of DMEM without phenol red (Gibco, 11880-028) supplemented with 1× GlutaMAX (Gibco, 35050-038), 10 mM HEPES (Gibco, 15630-056), 1% (w/v) ovalbumin (Sigma, A5503) and 0.1% (v/v) Pluronic F-68 (Gibco, 24040-032) either with HSA or without HSA (Sigma, A9511).
Frozen stocks of hGLP-1R BHK CRE-Luc cells were thawed in a 37° C. water bath, washed once in PBS (Gibco 14190-094) and diluted to 1.5×10^6 (1.5E+6) cells/mL in assay buffer with or without 2% (w/v) HSA (Sigma, A9511). […] The assay plates were incubated for 3 hours at 37° C. in 5% CO2, left at room temperature for 5 minutes after which 100 μL steadylite Plus™ (PerkinElmer/Revvity, 6066759) was added to each well. Plates were sealed and incubated at room temperature with gentle shaking for 30 minutes while protected from light. Luminescence was detected on a luminescence plate reader e.g., a Synergy 2 (BioTek).

[2] = biological target: T2, human amylin receptor (hAMYR3) (Homo sapiens, UniProt O60896+P30988); test: Amylin receptor assay, method A (CRE-luciferase reporter, BHK cells)
T2 construct: host or cells: BHK cells (Hollex-1 line expressing hCTR(a) and CRE-Luc), further transfected with human RAMP3
Method: as §1
It is thus possible to measure hAMYR3 activity using a CRE-luciferase reporter gene introduced into Baby Hamster Kidney (BHK) cells co-expressing the hAMYR3.
The cell line was further transfected with human receptor modifying protein 3 (RAMP3) using standard methods.
After centrifugation, the cell pellet was resuspended and diluted to approximately 2.5-4.0×10^6 (2.5E+6 to 4.0E+6) cells/mL in Recovery™ Cell Culture Freezing Medium (Gibco, 12648-010). Cells were aliquoted and stored at −180° C. until use.
as §2, with “15630-056) and” for “15630-056),”, “either with or without” for “and”, “24040-032) and” for “24040-032)”, “with” for “with HSA”
The plate was incubated over night at 37° C. in 5% CO2. […] Luminescence was detected on a luminescence plate reader e.g., a Synergy 2 (BioTek).

[3] = biological target: T3, human GIP receptor (hGIPR) (Homo sapiens, UniProt P48546); test: GIP receptor assay, method A (CRE-luciferase reporter, BHK cells)
T3 construct: expressed in transfected cells
T3 sequence (P48546 22-466): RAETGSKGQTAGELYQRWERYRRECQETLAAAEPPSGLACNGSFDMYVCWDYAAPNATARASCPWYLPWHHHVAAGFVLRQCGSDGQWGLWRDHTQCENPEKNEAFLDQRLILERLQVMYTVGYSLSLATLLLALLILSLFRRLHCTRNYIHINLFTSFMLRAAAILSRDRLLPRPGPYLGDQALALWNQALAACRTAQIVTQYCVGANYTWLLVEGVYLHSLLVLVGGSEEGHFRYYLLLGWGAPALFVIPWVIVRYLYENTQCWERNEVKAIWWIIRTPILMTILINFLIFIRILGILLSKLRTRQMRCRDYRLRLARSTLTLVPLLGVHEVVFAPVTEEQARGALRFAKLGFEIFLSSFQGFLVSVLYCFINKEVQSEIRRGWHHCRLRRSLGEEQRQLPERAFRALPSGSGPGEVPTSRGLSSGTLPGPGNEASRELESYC
Method: To assess how the activation of the receptors is potentially influenced by the presence of human serum albumin (HSA), the in vitro assays were performed in the absence of HSA and presence of 1% (w/v) HSA. Unless stated otherwise the reference to the “GIP receptor assay as described in Example 4” throughout the specification shall refer to the described herein assay procedure method A (hGIPR assay) in the absence of HSA.
Activation of the human GIP receptor leads to increased intra-cellular concentrations of cyclic AMP (cAMP) and the consequent transcription activation from promoters containing multiple copies of the cAMP response element (CRE). It is thus possible to measure GIP receptor activity using a CRE-luciferase reporter gene introduced into Baby Hamster Kidney (BHK) cells co-expressing the human GIP receptor.
Cells at about 80-90% confluency were washed once with PBS (Gibco 14190-094) and detached from the cell flasks with Versene (Gibco, 15040-066). After centrifugation, the cells were counted, resuspended and diluted to approximately 1.5-3.0×10^6 (1.5E+6 to 3.0E+6) cells/mL in Recovery Cell Culture Freezing Medium (Gibco, 12648-010) and stored at −180° C. in suitable aliquots until use.
as §2
On the day before the assay hGIPR BHK Cre-Luc cells were thawed and plated out in 96 well Culture Plates (PerkinElmer/Revvity, 6005680) at 5.0×10^3 (5.0E+3) cells/well in growth medium as described above. The plates were then incubated for 21-23 hours at 37° C. with 5% CO2. On the day of the assay GLP-1-/GIP-/amylin-receptor tri-agonists or reference compounds were diluted in assay buffer using a 7-point, 10-fold titration plus a blank (absence of compound). Each compound was diluted and tested in duplicates in each experiment. In the plates containing the cells the growth medium was removed, and cells were washed twice with 100 μL PBS (Gibco 14190-094). 50 μL of the test compound dilutions were added to the plates containing cells preceded by 50 μL assay buffer with or without 2% (w/v) HSA (Sigma, A9511). The cell plates were incubated for 3 hours in a 5% CO2 incubator at 37° C. The plates were then transferred to room temperature followed by addition of 100 μL steadylite Plus™ (PerkinElmer/Revvity, 6066759). The plates were sealed and shaken for 30 minutes at room temperature while protected from light. Finally, luminescence (as an indicator of receptor activation) was measured on a Mithras reader (Berthold Technologies, DE). The EC50-values [pM] were calculated by non-linear curve fitting applying a four-parameter logistic model (Hill slope=“shared value for all datasets”) using GraphPad Prism (GraphPad Software, Boston, MA, USA).

[4] = method A, absence of HSA, read-out: hGLP-1R Potency, no HSA, EC50
[5] = method A, absence of HSA, read-out: hAMYR3 Potency, no HSA, EC50
[6] = method A, absence of HSA, read-out: hGIPR Potency, no HSA, EC50

T1 sequence (P43220 24-463): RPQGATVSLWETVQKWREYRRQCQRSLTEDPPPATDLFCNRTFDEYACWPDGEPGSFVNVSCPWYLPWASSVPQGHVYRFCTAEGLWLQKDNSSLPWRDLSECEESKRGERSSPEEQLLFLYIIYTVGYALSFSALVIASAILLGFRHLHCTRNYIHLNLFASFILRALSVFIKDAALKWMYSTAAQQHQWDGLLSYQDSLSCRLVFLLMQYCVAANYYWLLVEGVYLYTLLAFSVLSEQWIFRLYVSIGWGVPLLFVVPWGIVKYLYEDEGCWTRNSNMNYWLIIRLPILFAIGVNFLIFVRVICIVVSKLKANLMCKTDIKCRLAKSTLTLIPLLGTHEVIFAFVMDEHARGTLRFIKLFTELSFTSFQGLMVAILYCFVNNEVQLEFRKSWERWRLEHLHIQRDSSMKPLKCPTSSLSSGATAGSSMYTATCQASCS
T2 sequence (P30988 25-474): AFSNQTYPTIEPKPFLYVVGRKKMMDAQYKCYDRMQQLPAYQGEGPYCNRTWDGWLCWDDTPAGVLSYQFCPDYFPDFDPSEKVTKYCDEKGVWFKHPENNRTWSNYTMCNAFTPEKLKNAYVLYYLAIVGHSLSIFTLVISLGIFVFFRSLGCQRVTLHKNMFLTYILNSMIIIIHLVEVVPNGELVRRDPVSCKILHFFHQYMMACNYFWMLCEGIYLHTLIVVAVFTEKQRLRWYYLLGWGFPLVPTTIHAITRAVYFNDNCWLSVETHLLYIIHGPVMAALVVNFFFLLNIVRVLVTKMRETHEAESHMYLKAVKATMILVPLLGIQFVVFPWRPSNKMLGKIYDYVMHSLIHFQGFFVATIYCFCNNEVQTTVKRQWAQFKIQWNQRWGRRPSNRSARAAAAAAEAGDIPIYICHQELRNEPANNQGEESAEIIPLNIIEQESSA
T2 sequence (O60896 24-148): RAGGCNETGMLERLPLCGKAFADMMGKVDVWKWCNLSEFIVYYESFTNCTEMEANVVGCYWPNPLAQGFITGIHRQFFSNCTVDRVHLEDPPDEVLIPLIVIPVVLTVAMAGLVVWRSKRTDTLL

| Substance | pEC50 [1, 4] | pEC50 [2, 5] | pEC50 [3, 6] | pEC50 ([1]; hGLP-1R Potency, 1% HSA, EC50, method A, in the presence of 1% HSA) | pEC50 ([2]; hAMYR3 Potency, 1% HSA, EC50, method A, in the presence of 1% HSA) | pEC50 ([3]; hGIPR Potency, 1% HSA, EC50, method A, in the presence of 1% HSA) |
| --- | --- | --- | --- | --- | --- | --- |
| Y[Aib]EGTFTSDYSILLEEQAAREFIEWLLAGGPSK([AEEA-AEEA-γGlu-C18 diacid])GALAQTLGTNEASELSTAALGRLSAELHELATLPRTETGSGSP-NH2 [Compound 23] | 10.81 | 11.29 | 11.92 | – | – | – |
| Y[Aib]EGTFTSDYSILLEEQAAREFIEWLLAGGPSK([AEEA-AEEA-γGlu-C18 diacid])GAPPEASELSTAALGRLSAELHELATLPRTETGSGSP-NH2 [Compound 33] | 10.49 | 10.99 | 11.51 | – | – | – |
| Y[Aib]EGTFTSDYSILLEEQAAREFIEWLLAGGPSK([AEEA-AEEA-γGlu-C18 diacid])GAPPPSGGGGASELSTAALGRLSAELHRLATLPRTETGSGSP-NH2 [Compound 13] | 10.42 | 11.65 | 11.62 | – | – | – |
| Y[Aib]EGTFTSDYSILLEEQAAREFIEWLLAGGPSK([AEEA-AEEA-γGlu-C18 diacid])GEASELSTAALARLSAELHRLATLPRTETGSGSP-NH2 [Compound 28] | 10.02 | 11.64 | 11.46 | – | – | – |
| Y[Aib]EGTFTSDYSILLEEQAAREFIEWLLAGGPSK([AEEA-AEEA-γGlu-C18 diacid])GEASELSTAALGRLSAELHRLATLPRTETGSGSP-NH2 [Compound 19] | 10.24 | 11.37 | 11.03 | – | – | – |
| Y[Aib]EGTFTSDYSILLEEQAAREFIEWLLAGGPSK([AEEA-AEEA-γGlu-C18 diacid])GEASELSTAALGRLSAELHYLATLPRTETGSGSP-NH2 [Compound 29] | 10.57 | 11.51 | 11.58 | – | – | – |
| Y[Aib]EGTFTSDYSILLEEQAAREFIEWLLAGGPSK([AEEA-AEEA-γGlu-C18 diacid])GEASELSTAQLGRLSAELHRLATLPRTETGSGSP-NH2 [Compound 27] | 10.58 | 11.42 | 11.68 | – | – | – |
| Y[Aib]EGTFTSDYSILLEEQAAREFIEWLLAGGPSK([AEEA-AEEA-γGlu-C18 diacid])GEASHLSTAQTQRLSAELHELATLPRTETGSGSP-NH2 [Compound 34] | 10.66 | 11.17 | 11.77 | – | – | – |
| Y[Aib]EGTFTSDYSILLEEQAAREFIEWLLAGGPSK([AEEA-AEEA-γGlu-C18 diacid])GGGGEGGGEGEASHLSTAQTQRLSAELHELATLPRTETGSGSP-NH2 [Compound 40] | 10.63 | 11.26 | 11.79 | – | – | – |
| Y[Aib]EGTFTSDYSILLEEQAAREFIEWLLAGGPSK([AEEA-AEEA-γGlu-C18 diacid])GGQEPGQEPGEASHLSTAQTQRLSAELHELATLPRTETGSGSP-NH2 [Compound 39] | 10.62 | 11.24 | 11.79 | 8.72 | 9.85 | 9.45 |
